Assay results as given in article PMC6205551, “Molecular analysis of the dual targeting of the epidermal growth factor receptor and the O^6-methylguanine-DNA methyltransferase with a double arm hybrid molecule” (Oncotarget, 2018).

Legend:
[1] = biological target: T1, O^6-methylguanine-DNA methyltransferase (MGMT) (Homo sapiens, UniProt P16455); test: MALDI-TOF MS of tryptic peptides of isolated MGMT incubated with […] compound (S-benzylation); type: binding
T1 sequence (P16455 1-207): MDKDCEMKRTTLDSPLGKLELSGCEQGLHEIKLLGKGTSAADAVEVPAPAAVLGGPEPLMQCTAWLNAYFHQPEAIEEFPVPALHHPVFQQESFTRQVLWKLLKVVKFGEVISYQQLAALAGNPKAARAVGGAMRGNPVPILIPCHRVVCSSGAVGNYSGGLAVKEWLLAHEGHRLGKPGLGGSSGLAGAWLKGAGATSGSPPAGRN

HER2 = biological target: T2, HER2 (Homo sapiens, UniProt P04626); test: isolated kinase profiling (Carna), single dose […], ATP at Km; type: biochemical
T2 construct: gene ERBB2
T2 sequence (P04626 23-1255): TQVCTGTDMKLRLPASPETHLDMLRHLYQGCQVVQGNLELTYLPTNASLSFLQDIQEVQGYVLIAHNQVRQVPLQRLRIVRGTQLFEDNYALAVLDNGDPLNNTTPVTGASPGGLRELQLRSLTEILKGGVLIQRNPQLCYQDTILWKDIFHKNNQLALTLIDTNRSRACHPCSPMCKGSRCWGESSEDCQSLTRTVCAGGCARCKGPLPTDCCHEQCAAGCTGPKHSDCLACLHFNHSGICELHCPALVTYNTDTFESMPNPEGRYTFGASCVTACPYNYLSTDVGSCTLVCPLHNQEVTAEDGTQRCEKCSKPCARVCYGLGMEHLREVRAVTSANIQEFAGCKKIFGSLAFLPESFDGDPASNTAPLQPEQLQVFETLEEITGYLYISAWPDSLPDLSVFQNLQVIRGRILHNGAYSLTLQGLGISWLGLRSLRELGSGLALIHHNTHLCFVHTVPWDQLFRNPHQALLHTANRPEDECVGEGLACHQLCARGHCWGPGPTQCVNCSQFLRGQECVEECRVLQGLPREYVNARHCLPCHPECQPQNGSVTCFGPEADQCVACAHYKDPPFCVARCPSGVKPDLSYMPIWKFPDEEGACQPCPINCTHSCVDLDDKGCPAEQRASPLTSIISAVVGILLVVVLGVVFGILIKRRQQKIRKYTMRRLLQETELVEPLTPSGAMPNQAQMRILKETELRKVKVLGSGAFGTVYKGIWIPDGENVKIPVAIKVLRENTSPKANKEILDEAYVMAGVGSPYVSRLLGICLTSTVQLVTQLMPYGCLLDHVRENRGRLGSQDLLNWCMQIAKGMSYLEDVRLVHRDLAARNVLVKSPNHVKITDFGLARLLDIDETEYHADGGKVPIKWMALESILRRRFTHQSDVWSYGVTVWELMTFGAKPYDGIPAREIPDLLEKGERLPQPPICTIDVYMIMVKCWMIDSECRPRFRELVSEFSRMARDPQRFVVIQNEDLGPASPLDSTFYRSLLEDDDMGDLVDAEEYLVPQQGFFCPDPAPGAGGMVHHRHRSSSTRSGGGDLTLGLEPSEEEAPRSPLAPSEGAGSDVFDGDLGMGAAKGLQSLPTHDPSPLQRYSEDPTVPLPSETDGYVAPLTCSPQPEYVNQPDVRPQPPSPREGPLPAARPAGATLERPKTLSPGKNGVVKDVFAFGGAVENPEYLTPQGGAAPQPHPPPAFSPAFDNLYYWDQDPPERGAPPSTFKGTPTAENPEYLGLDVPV

HER4 = biological target: T3, HER4 (Homo sapiens, UniProt Q15303); test: as above; type: biochemical
T3 construct: gene ERBB4
T3 sequence (Q15303 26-1308): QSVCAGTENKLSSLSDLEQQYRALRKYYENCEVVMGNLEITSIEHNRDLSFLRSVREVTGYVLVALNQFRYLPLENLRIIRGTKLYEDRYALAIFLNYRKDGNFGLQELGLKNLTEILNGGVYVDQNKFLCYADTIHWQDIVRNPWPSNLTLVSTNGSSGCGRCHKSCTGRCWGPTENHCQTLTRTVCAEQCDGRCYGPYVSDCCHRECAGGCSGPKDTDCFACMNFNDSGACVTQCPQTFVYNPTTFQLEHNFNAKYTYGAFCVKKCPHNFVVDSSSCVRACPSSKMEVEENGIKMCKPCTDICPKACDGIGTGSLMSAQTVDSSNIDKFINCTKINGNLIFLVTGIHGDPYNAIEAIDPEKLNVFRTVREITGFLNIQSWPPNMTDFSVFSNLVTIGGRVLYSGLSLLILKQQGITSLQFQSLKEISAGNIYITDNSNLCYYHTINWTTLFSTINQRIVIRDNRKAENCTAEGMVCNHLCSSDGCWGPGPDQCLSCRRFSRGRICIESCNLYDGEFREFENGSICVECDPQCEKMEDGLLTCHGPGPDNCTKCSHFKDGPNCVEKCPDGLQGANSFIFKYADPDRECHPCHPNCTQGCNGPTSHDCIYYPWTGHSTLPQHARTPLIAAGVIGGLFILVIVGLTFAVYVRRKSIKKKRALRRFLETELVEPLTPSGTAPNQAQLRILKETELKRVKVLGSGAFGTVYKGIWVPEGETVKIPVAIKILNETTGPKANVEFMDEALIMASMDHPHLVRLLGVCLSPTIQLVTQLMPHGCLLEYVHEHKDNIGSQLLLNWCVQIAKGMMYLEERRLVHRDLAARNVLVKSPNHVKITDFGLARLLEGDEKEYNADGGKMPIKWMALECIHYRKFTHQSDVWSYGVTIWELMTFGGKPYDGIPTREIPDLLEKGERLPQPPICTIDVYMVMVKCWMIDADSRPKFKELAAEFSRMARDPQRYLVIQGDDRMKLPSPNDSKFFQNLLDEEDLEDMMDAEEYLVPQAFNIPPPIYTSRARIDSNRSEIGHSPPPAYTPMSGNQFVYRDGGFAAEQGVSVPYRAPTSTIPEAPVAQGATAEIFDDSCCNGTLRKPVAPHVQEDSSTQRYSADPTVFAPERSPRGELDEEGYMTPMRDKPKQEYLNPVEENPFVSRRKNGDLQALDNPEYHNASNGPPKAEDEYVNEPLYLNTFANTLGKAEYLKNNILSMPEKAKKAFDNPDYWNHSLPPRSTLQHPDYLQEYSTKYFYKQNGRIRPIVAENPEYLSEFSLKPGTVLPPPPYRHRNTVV

EGFR (L858R) = EGFR (L858R) (Homo sapiens, UniProt P00533, L858R); test: as above; type: biochemical
[2] = biological target: epidermal growth factor receptor (EGFR) (Homo sapiens, UniProt P00533); test: in vitro EGFR kinase assay (PGT substrate, […] ATP, ELISA); type: biochemical

| IC50 [2] | Compound | MALDI-TOF MS of tryptic peptides of isolated MGMT incubated with 10 μM compound [1] | isolated kinase profiling (Carna), single dose 500 nM, ATP at Km (HER2) | isolated kinase profiling (Carna), single dose 500 nM, ATP at Km (HER4) | isolated kinase profiling (Carna), single dose 500 nM, ATP at Km (EGFR (L858R)) |
| --- | --- | --- | --- | --- | --- |
|  | Nc1nc(OCc2ccccc2)c2nc[nH]c2n1 [O^6-BG] | when we treated MGMT with MR30 or O^6-BG, we observed a mass shift |  |  |  |
| 300 ± 170 nM | Nc1nc(OCc2ccccc2)c2ncn(C(=O)N3CCN(CCNc4ccc5ncnc(Nc6cccc(Br)c6)c5c4)CC3)c2n1 [compound 5, (2-amino-6-(benzyloxy)-9H-purin-9-yl)(4-(2-((4-((3-bromophenyl)amino)quinazolin-6-yl)amino)ethyl)piperazin-1-yl)methanone] | like O^6-BG, MR30 is capable of binding to MGMT and alkylate its Cys145 | MR30 selectively inhibited kinases from HER family of proteins, including EGFR, EGFR (L858R, d746-750), HER2 and HER4 | MR30 selectively inhibited kinases from HER family of proteins, including EGFR, EGFR (L858R, d746-750), HER2 and HER4 | MR30, selectively inhibited kinases from the HER family of proteins [e.g. EGFR wild-type, EGFR (L858R) |
